The record followed here is US4598076A, “2-pyrrolin-3-carbonitril-derivatives, pharmaceutical compositions containing them and their anti-inflammatory and ulcer protective activity” (Warner-Lambert Company, priority 1982, dated 1986).

The nature of data set [1]: Acute toxicity on mice (LD50, 7 day observation). Conditions: mouse, in vivo, po; male NMRI mice, intragastral, 7 day observation. As for the experimental part:
(§1) The determination of the acute toxicity was carried out on male mice (NMRI) with a body weight of from 18 to 23 g. All the experimental animals fasted for 20 hours before commencement of the experiment. Water was available ad libitum. Each dosage grouping contained 4 animals. The dosage sequence was logarithmic. The test compounds were administered intragastrally as suspensions in 1% tragacanth slurry. The volume administered was 20 ml./kg. body weight.
(§2) The following Table gives the LD50 values after a 7 day observation period of the animals: […]

For data set [2], the system named is carrageenin oedema in rats. As to the kind of experiment: Antiphlogistic action against carrageenin oedema in rats. To be noted: for inhibition of the paw volume: 3 hours after carrageenin; for antiphlogistic properties (in words): carrageenin oedema. In kind it is in vivo, rats (SIV 50). The procedure:
The experimental animals used were male rats (SIV 50), fasting for 20 hours, with a body weight of 110 to 160 g. Water was available ad libitum. After determination of the initial value of the paw volume of the right hind leg, the test substance was administered intragastrally as a suspension in 1% tragacanth slurry. 10 animals were used per dosage group. The volume administered was 20 ml./kg. body weight. The paw volume was measured by means of mercury displacement. 60 minutes after intragastral administration of the test substances, 0.1 ml. of a 1% carrageenin solution was injected subplantarily into the right hind paw. 1 and 3 hours after injection of the carrageenin, the paw volume of the oedematous paw was measured. The increase of the paw volume of the test substance-treated animals after 3 hours was compared with that of the control animals and the inhibition of the paw oedema by the test substance was calculated therefrom as a percentage.
In general terms: The carrageenan paw model is a standard test of acute inflammation.

Data set [3] has as its system gastric juice secretion in rats. Nature of the data set: Influence on gastric juice secretion in rats (Shay, pyloric ligature). In kind it is in vivo, rats (SIV 50). Conditions: 4 hours after pyloric ligature. As for the experimental part:
According to the method described by H. Shay et al. (Gastroenterology, 5, 43-61/1945), male rats (SIV 50) with a body weight of 160 to 200 g. were fasted for 48 hours before commencement of the experiment. Water was available to the animals ad libitum. The test substances were administered intragastrally as a suspension in 1% tragacanth slurry. The volume administered was 10 ml./kg. body weight. 8 animals were used per experimental group. One hour after administration of the substance, a pyloric ligature was applied under light ether narcosis. 4 hours after this intervention, the animals were sacrificed. The extirpated stomach was opened up along the curvatura major and the volume of the secretion was measured and compared with the data obtained from the control group.

The test system of data set [4] is stomach ulcers in rats induced by indomethacin. As to the kind of experiment: Ulcer-protective action on stomach ulcers in rats induced by indomethacin. Format: in vivo, rats (SIV 50). Conditions: with 40 mg/kg indomethacin, 5 hours. The procedure:
The experimental animals used were male rats (SIV 50), fasted for 20 hours, with a body weight of 170 to 220 g. Water was available ad libitum. The animals were simultaneously given intragastrally 40 mg./kg. indomethacin and the test substance in the form of a suspension in 0.8% "Methocel". The control animals only received the corresponding dosage of indomethacin. 10 animals were used for each experimental group. The volume administered was 10 ml./kg. body weight. 5 hours after administration, the animals were sacrificed. After removal of the stomach and opening along the curvatura major, this was investigated with a stereomagnifier for the presence of ulcers. […] The ulcer index of the animals treated with indomethacin and test substance was compared with that of the control animals which had only been treated with indomethacin and the ulcer inhibition calculated therefrom as a percentage.

The subject of data set [5] is male mice (NMRI). Nature of the data set: Acute toxicity on mice (LD50, 7 day observation). To be noted: mouse, in vivo. The procedure:
as §1, §2

Where only a bound is given, the exact number is not on record here.

Molecule `CCN(CC)CCSC1=C(C#N)C(c2ccc(N(C)C)cc2)(c2cccnc2)C(=O)N1` (stereo not drawn) [Example 4a, 2-(2-diethylaminoethylthio)-4-(4-dimethylaminophenyl)-5-oxo-4-(3-pyridyl)-2-pyrrolin-3-carbonitril] showed an LD50 at 168 h in data set [1] of 800 mg/kg. Also, the “inhibition of the paw volume” value in data set [2] (50 mg/kg intragastrally) amounted to 59%; in data set [2] (100 mg/kg intragastrally) it was 77%. The “antiphlogistic properties (in words)” value in data set [2] is on record as “most effective compounds”. Besides, the figures for the “inhibition of gastric juice secretion” value in data set [3] (62.5 mg/kg intragastral), in data set [3] (125 mg/kg intragastral) and in data set [3] (250 mg/kg intragastral) were 45%, 64% and 73%, respectively. The same molecule gave a ulcer inhibition in data set [4] (125 mg/kg intragastral) of 84%.

In data set [1], `CN(C)c1ccc(C2(c3cccnc3)C(=O)NC(SCCN3CCOCC3)=C2C#N)cc1` (stereo not drawn) [Example 4b, 4-(4-dimethylaminophenyl)-2-(2-morpholinoethylthio)-5-oxo-4-(3-pyridyl)-2-pyrroline-3-carbonitrile] gave a 50% lethal dose (LD50) at 168 h of 400 mg/kg. Also, the “inhibition of gastric juice secretion” value in data set [3] (50 mg/kg intragastral) amounted to 24%; in data set [3] (100 mg/kg intragastral) it was 63%; in data set [3] (200 mg/kg intragastral), 76%.

The molecule `CN(C)c1ccc(C2(c3cccnc3)C(=O)NC(SCCN3CCCCC3)=C2C#N)cc1` (stereo not drawn) [Example 4d, 4-(4-dimethylaminophenyl)-2-(2-piperidinoethylthio)-5-oxo-4-(3-pyridyl)-2-pyrroline-3-carbonitrile] had an LD50 at 168 h in data set [1] of 1600 mg/kg. Also, the “inhibition of the paw volume” value is 26% in data set [2] (50 mg/kg intragastrally) and 83% in data set [2] (125 mg/kg intragastrally). In addition, the entries for the “inhibition of gastric juice secretion” value in data set [3] (125 mg/kg intragastral) and in data set [3] (250 mg/kg intragastral) were 48% and 76%, respectively.

`CN(C)c1ccc(C2(c3cccnc3)C(=O)NC(SCCN3CCCC3)=C2C#N)cc1` (stereo not drawn) [Example 4e, 4-(4-dimethylaminophenyl)-2-(2-pyrrolidinoethylthio)-5-oxo-4-(3-pyridyl)-2-pyrroline-3-carbonitrile] had an LD50 at 168 h in data set [1] of more than 1600 mg/kg. Moreover, the “inhibition of the paw volume” value in data set [2] (25 mg/kg intragastrally) is listed as 37%; in data set [2] (50 mg/kg intragastrally) it was 70%. The “antiphlogistic properties (in words)” value in data set [2] is listed as “most effective compounds”.

Molecule `CN(C)CCSC1=C(C#N)C(c2ccc(N(C)C)cc2)(c2cccnc2)C(=O)N1` (stereo not drawn) [Example 4g, 2-(2-dimethylaminoethylthio)-4-(4-dimethylaminophenyl)-5-oxo-4-(3-pyridyl)-2-pyrroline-3-carbonitrile] gave an LD50 at 168 h in data set [1] of 1600 mg/kg. Besides, the “inhibition of the paw volume” value in data set [2] (50 mg/kg intragastrally) is given as 25%; in data set [2] (100 mg/kg intragastrally), 61%.

In turn, `CSC1=C(C#N)C(c2ccc(N(C)C)cc2)(c2cccnc2)C(=O)N1` (stereo not drawn) [Example 4i, 4-(4-dimethylaminophenyl)-2-methylthio-5-oxo-4-(3-pyridyl)-2-pyrroline-3-carbonitrile] yielded an LD50 at 168 h in data set [1] of more than 1600 mg/kg. Further, the “compatibility (in words)” value in data set [5] is recorded as “good compatibility”. Also, the ulcer inhibition in data set [4] (50 mg/kg intragastral) was 88%.

Regarding `CCN(CC)CCCSC1=C(C#N)C(c2ccc(N(C)C)cc2)(c2cccnc2)C(=O)N1` (stereo not drawn) [Example 4k, 2-(3-diethylaminopropylthio)-4-(4-dimethylaminophenyl)-5-oxo-4-(3-pyridyl)-2-pyrroline-3-carbonitrile], in data set [1], the LD50 at 168 h amounted to 300 mg/kg. For the same molecule, the ulcer inhibition in data set [4] (50 mg/kg intragastral) was 33%; in data set [4] (100 mg/kg intragastral), 94%.

Regarding `N#CC1=C(SCCN2CCOCC2)NC(=O)C1(c1ccccc1)c1cccs1` (stereo not drawn) [Example 6c, 2-(2-morpholinoethylthio)-5-oxo-4-phenyl-4-(2-thienyl)-2-pyrroline-3-carbonitrile], the median lethal dose (LD50) at 168 h in data set [1] was more than 1600 mg/kg. Moreover, the “inhibition of the paw volume” value is given as 6% in data set [2] (125 mg/kg intragastrally) and 45% in data set [2] (250 mg/kg intragastrally).

Regarding `N#CC1=C(SCCN2CCCC2)NC(=O)C1(c1ccccc1)c1cccs1` (stereo not drawn) [Example 6f, 5-oxo-4-phenyl-2-(2-pyrrolidinoethylthio)-4-(2-thienyl)-2-pyrroline-3-carbonitrile], in data set [1], the LD50 at 168 h is more than 1600 mg/kg. Besides, the “inhibition of the paw volume” value in data set [2] (125 mg/kg intragastrally) is 24%; in data set [2] (250 mg/kg intragastrally) it was 45%.

As a reminder, the LD50 is the dose at which mortality reaches 50%. Low values mean a more toxic substance, high ones a less toxic substance.
